The values below come from publication PMC8790780 (Chemistry (Weinheim an der Bergstrasse, Germany), 2021).

For one assay, the target named is Hsp90β (Homo sapiens, UniProt P08238). In words: Fluorescence polarization. As to conditions: for Selectivity: Hsp90β versus Hsp90α, from FP IC50 values; for binding affinity for Hsp90β (in words): FP assay, SAR discussion. The class given is binding. (Fluorescence polarisation rises when a labelled molecule tumbles more slowly, as on binding a larger partner.)
Hsp90β, sequence (P08238 whole entry): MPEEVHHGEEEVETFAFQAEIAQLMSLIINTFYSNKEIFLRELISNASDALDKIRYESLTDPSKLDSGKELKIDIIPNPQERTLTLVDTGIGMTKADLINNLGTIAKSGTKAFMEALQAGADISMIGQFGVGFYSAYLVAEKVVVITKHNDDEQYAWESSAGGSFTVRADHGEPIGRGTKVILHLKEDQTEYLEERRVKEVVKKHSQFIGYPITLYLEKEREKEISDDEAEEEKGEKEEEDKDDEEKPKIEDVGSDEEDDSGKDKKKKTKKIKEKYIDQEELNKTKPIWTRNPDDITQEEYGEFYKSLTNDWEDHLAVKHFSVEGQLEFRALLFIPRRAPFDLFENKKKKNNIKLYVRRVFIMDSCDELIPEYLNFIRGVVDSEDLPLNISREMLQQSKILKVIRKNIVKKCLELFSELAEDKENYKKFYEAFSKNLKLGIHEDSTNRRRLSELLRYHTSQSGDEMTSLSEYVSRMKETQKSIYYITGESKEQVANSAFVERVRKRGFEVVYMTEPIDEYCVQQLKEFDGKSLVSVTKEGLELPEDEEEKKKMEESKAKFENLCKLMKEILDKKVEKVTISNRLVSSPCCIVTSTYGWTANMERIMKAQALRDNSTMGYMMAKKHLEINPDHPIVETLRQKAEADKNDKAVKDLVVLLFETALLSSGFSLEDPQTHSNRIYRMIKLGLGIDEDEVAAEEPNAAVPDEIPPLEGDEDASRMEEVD
The target in a further assay is Hsp90α (Homo sapiens, UniProt P07900). In words: Fluorescence polarization. The class given is binding. As to conditions: for binding affinity for Hsp90α (in words): FP assay, SAR discussion.
The test system of another assay is HT29 cells. In words: Cell viability assay. The settings on record: Homo sapiens, HT-29, 72 h, read-out: HT29 [IC50 in μM]. The class given is cell-based.
Another assay has as its system NCI-H1299 cells. In words: Cell viability assay. The class given is cell-based. The settings on record: Homo sapiens, NCI-H1299, 72 h, read-out: NCI—H1299 [IC50 in μM].

Structures are written as SMILES.

A word on the IC50: it is the concentration needed to halve the response being measured. With `CC(C)c1cc(C(=O)N2Cc3ccccc3C2)c(O)c2cc[nH]c12` [Compound 18, (4-hydroxy-7-isopropyl-1H-indol-5-yl)(isoindolin-2-yl)methanone], the half-maximal inhibitory concentration (IC50) against Hsp90β was over 100 µM; on Hsp90α, over 100 µM; with HT29 cells, 62 ± 1.42 µM; in the assay with NCI-H1299 cells it was over 100 µM.

Turning to `CC(C)c1cc(C(=O)N2Cc3ccccc3C2)c(O)c2cn[nH]c12` [Compound 19, (4-Hydroxy-7-isopropyl-1H-indazol-5-yl)(isoindolin-2-yl) methanone], the IC50 against Hsp90β, on Hsp90α, with HT29 cells and in the assay on NCI-H1299 cells was over 100 µM in each case.

With `CC(C)c1cc(C(=O)N2Cc3ccccc3C2)c(O)c2[nH]nnc12` [Compound 20, (7-Hydroxy-4-isopropyl-1H-benzo[d][1,2,3]triazol-6-yl)(isoindolin-2-yl)methanone], the IC50 was over 100 µM against Hsp90β, over 100 µM at Hsp90α, over 100 µM with HT29 cells and 75 ± 21.4 µM in the assay on NCI-H1299 cells.

Take `CC(C)c1cc(C(=O)N2Cc3ccccc3C2)c(O)c2nc[nH]c12` [Compound 21, (4-Hydroxy-7-isopropyl-1H-benzo[d]imidazol-5-yl)(isoindolin-2-yl) methanone]: the IC50 against Hsp90β is 0.45 ± 0.15 µM; on Hsp90α, 2.22 ± 0.19 µM; in the assay with HT29 cells it was 93.7 ± 2.67 µM; in the assay with NCI-H1299 cells it was 60 ± 10.5 µM. For the same molecule, at Hsp90β, the Selectivity amounted to 4.9.

Consider `CC(C)c1cc(C(=O)N2Cc3ccccc3C2)c(O)c2c1CCC2=O` [Compound 29a, 7-hydroxy-6-(isoindoline-2-carbonyl)-4-isopropyl-2,3-dihydro-1H-inden-1-one], for which the IC50 is over 100 µM at Hsp90β, over 100 µM at Hsp90α, 63.5 ± 1.69 µM with HT29 cells and 67.6 ± 4.13 µM with NCI-H1299 cells. For the same molecule, the “binding affinity for Hsp90β (in words)” value at Hsp90β is recorded as “did not exhibit affinity”. Moreover, at Hsp90α, the “binding affinity for Hsp90α (in words)” value was “did not exhibit affinity”.

In the case of `CC(C)c1cc(C(=O)N2Cc3ccccc3C2)c(O)c2c1C(=O)CC2` [Compound 29b, 4-Hydroxy-5-(isoindoline-2-carbonyl)-7-isopropyl-2,3-dihydro-1H-inden-1-one], the IC50 at Hsp90β stood at 0.15 ± 0.04 µM; on Hsp90α it was 0.79 ± 0.14 µM; in the assay on HT29 cells, 21.7 ± 2.6 µM; with NCI-H1299 cells, 10 ± 3.28 µM. Also, the “binding affinity for Hsp90β (in words)” value at Hsp90β is listed as “strong affinity”. Further, the “binding affinity for Hsp90α (in words)” value at Hsp90α is reported as “strong affinity”.

`CC(C)c1cc(C(=O)N2Cc3ccccc3C2)c(O)c2c1CCC2` [Compound 31, (4-hydroxy-7-isopropyl-2,3-dihydro-1H-inden-5-yl)(isoindolin-2-yl)methanone]: the IC50 was 5.23 ± 0.13 µM against Hsp90β, over 100 µM at Hsp90α, 59.33 ± 0.18 µM with HT29 cells and 58.1 ± 0.34 µM in the assay on NCI-H1299 cells. Besides, the “binding affinity for Hsp90β (in words)” value at Hsp90β was “poor binding affinity”. For the same molecule, the Selectivity at Hsp90β is over 19.1.

As for `CC(C)c1cc(C(=O)N2Cc3ccccc3C2)c(O)c2c1CC=C2` [Compound 32a, (4-Hydroxy-7-isopropyl-1H-inden-5-yl)(isoindolin-2-yl)methanone], the IC50 at Hsp90β is 8.29 ± 0.17 µM; against Hsp90α, over 100 µM; in the assay on HT29 cells, 51.8 ± 2.18 µM; in the assay on NCI-H1299 cells, 46.1 ± 1.11 µM. Also, the Selectivity on Hsp90β is given as over 12.

As to `CC(C)c1cc(C(=O)N2Cc3ccccc3C2)c(O)c2c1C=CC2` [Compound 32b, (7-hydroxy-4-isopropyl-1H-inden-6-yl)(isoindolin-2-yl)methanone], the IC50 against Hsp90β is 1.86 ± 0.11 µM; at Hsp90α, over 100 µM; with HT29 cells, 47.4 ± 2.94 µM; in the assay with NCI-H1299 cells it was 41.4 ± 1.2 µM. This molecule registered a Selectivity at Hsp90β of over 53.

For `CC1Cc2c(O)c(C(=O)N3Cc4ccccc4C3)cc(C(C)C)c2C1=O` (stereo not drawn) [Compound 40, 4-Hydroxy-5-(isoindoline-2-carbonyl)-7-isopropyl-2-methyl-2,3-di-hydro-1H-inden-1-one], the IC50 is 8.83 ± 1.48 µM against Hsp90β, over 100 µM against Hsp90α, 60.2 ± 0.63 µM in the assay with HT29 cells and 59 ± 1.78 µM with NCI-H1299 cells. This molecule displayed a Selectivity on Hsp90β of over 11.

As to `CC(C)c1cc(C(=O)N2Cc3ccccc3C2)c(O)c2c1C(=O)C(C)(C)C2` [Compound 41, 4-hydroxy-5-(isoindoline-2-carbonyl)-7-isopropyl-2,2-dimethyl-2,3-dihydro-1H-inden-1-one], the IC50 was over 100 µM at Hsp90β, over 100 µM against Hsp90α, 54.3 ± 1.32 µM in the assay with HT29 cells and 51.31 ± 0.15 µM with NCI-H1299 cells. Also, the “binding affinity for Hsp90β (in words)” value at Hsp90β is on record as “not tolerated”.

Turning to `CC(C)c1cc(C(=O)N2Cc3ccccc3C2)c(O)c2c1C(=O)C(F)C2` (stereo not drawn) [Compound 42, 2-fluoro-4-hydroxy-5-(isoindoline-2-carbonyl)-7-isopropyl-2,3-di-hydro-1H-inden-1-one], the half-inhibitory concentration (IC50) is 0.34 ± 0.01 µM at Hsp90β, 2.42 ± 0.07 µM against Hsp90α, 58.3 ± 1.51 µM in the assay on HT29 cells and 20.6 ± 0.28 µM in the assay with NCI-H1299 cells. The Selectivity on Hsp90β is given as 7.1.

In the case of `CC(C)c1cc(C(=O)N2Cc3ccccc3C2)c(O)c2c1C(=O)C(F)(F)C2` [Compound 43, 2,2-difluoro-4-hydroxy-5-(isoindoline-2-carbonyl)-7-isopropyl-2,3-dihydro-1H-inden-1-one], the IC50 is 18.2 ± 1.3 µM on Hsp90β, over 100 µM at Hsp90α, over 100 µM in the assay on HT29 cells and over 100 µM in the assay with NCI-H1299 cells. The “binding affinity for Hsp90β (in words)” value on Hsp90β is “poor affinity”. The molecule also returned a Selectivity on Hsp90β of over 5.

Turning to `CC(C)c1cc(C(=O)N2Cc3ccccc3C2)c(O)c2c1C(=O)C(C(F)(F)F)C2` (stereo not drawn) [Compound 44, 4-Hydroxy-5-(isoindoline-2-carbonyl)-7-isopropyl-2-(trifluoromethyl)-2,3-dihydro-1H-inden-1-one], the IC50 against Hsp90β is 19.6 ± 2.2 µM; on Hsp90α it was over 100 µM; with HT29 cells, 75.29 ± 0.66 µM; in the assay on NCI-H1299 cells, 57.8 ± 8.01 µM. Also, the Selectivity at Hsp90β is over 5.

For the molecule `CC(C)c1cc(C(=O)N2Cc3ccccc3C2)c(O)c2c1C(=C(F)F)CC2` [Compound 45, (1-(difluoromethylene)-4-hydroxy-7-isopropyl-2,3-dihydro-1H-inden-5-yl)(isoindolin-2-yl)methanone], at Hsp90β, the IC50 is over 100 µM and the “binding affinity for Hsp90β (in words)” value is “did not display good affinity”. Moreover, on Hsp90α, the IC50 is over 100 µM and the “binding affinity for Hsp90α (in words)” value was “did not display good affinity”.

For `C=C1Cc2c(O)c(C(=O)N3Cc4ccccc4C3)cc(C(C)C)c2C1=O` [Compound 46, 4-hydroxy-5-(isoindoline-2-carbonyl)-7-isopropyl-2-methylene-2,3-dihydro-1H-inden-1-one], the IC50 is over 100 µM at Hsp90β, over 100 µM against Hsp90α, 66.5 ± 1.35 µM in the assay with HT29 cells and 68.2 ± 1.2 µM with NCI-H1299 cells. Also, the “binding affinity for Hsp90β (in words)” value on Hsp90β is given as “did not display good affinity”. Moreover, at Hsp90α, the “binding affinity for Hsp90α (in words)” value is given as “did not display good affinity”.

Turning to `CC(C)c1cc(C(=O)N2Cc3ccccc3C2)c(O)c2c1C(=O)C=C2` [Compound 50, 4-hydroxy-5-(isoindoline-2-carbonyl)-7-isopropyl-1H-inden-1-one], the IC50 was found to be 6.75 ± 0.01 µM against Hsp90β, 43.1 ± 11.5 µM on Hsp90α, 2.33 ± 0.48 µM in the assay on HT29 cells and 1.53 ± 0.16 µM with NCI-H1299 cells.

`CC(C)c1cc(C(=O)N2Cc3ccccc3C2)c(O)c2c1C(=NO)CC2` [Compound 51, (4-hydroxy-1-(hydroxyimino)-7-isopropyl-2,3-dihydro-1H-inden-5-yl)(isoindolin-2-yl)methanone]: the IC50 on Hsp90β was over 100 µM; against Hsp90α it was over 100 µM; with HT29 cells, 51.2 ± 2.23 µM; in the assay on NCI-H1299 cells it was 33.7 ± 1.78 µM.

`CON=C1CCc2c(O)c(C(=O)N3Cc4ccccc4C3)cc(C(C)C)c21` [Compound 52, (4-hydroxy-7-isopropyl-1-(methoxyimino)-2,3-dihydro-1H-inden-5-yl)(isoindolin-2-yl)methanone]: the IC50 is over 100 µM against Hsp90β, over 100 µM against Hsp90α, 51.2 ± 2.23 µM in the assay on HT29 cells and 86 ± 7.7 µM with NCI-H1299 cells.

For `CC(C)c1cc(C(=O)N2Cc3ccccc3C2)c(O)c2c1CCCC2=O` [Compound 59a, 8-hydroxy-7-(isoindoline-2-carbonyl)-5-isopropyl-3,4-dihydronaphthalen-1(2H)-one], the IC50 against Hsp90β was over 100 µM; on Hsp90α, over 100 µM; in the assay on HT29 cells it was 51.2 ± 2.23 µM; in the assay with NCI-H1299 cells it was 83.3 ± 1.31 µM.

As to `CC(C)c1cc(C(=O)N2Cc3ccccc3C2)c(O)c2c1C(=O)CCC2` [Compound 59b, 5-hydroxy-6-(isoindoline-2-carbonyl)-8-isopropyl-3,4-dihydronaphthalen-1(2H)-one], the IC50 at Hsp90β and on Hsp90α was over 100 µM throughout.
